What all share (type): biochemical
The target of assay [1] is T1, JAK1 kinase (Homo sapiens, UniProt P23458).
T1 construct: purchased Carna 08-144
In words: IC50 evaluation assay on JAK1 kinase inhibition (Caliper). The settings on record: adenosine triphosphate at Km; 1 hour at 28° C.; average of two tests; read-out: IC50 (nM) inhibiting JAK 1 kinase. The method, then: (§1) 1. The compound was dissolved in 100% DMSO, diluted into solutions with appropriate concentration gradients with water according to experimental requirement, and added to a 384-well plate.
(§2) 2. JAK2 kinase (Carna, Cat. No. 08-045, Lot. No. 07CBS-1927) and JAK3 kinase (Carna, Cat. No. 08-046, Lot. No. 08CBS-0371) were diluted to the optimum concentration with the following buffer solution: 50 mM HEPES, pH 7.5, 0.0015% Brij-35, 2 mM DTT. JAK1 kinase (Carna, Cat. No. 08-144, Lot. No. 11CBS-0144D) was diluted to the optimum concentration with the following buffer solution: 25 mM HEPES pH 7.5, 0.01% Brij-35, 2 mM DTT, 0.01M Triton. Transfer to the 384-well plate and incubated with the compound for a period of time.
(§3) 3. […] The substrate of JAK1 was diluted to the optimum concentration with the following buffer: 25 mM HEPES, pH 7.5, 0.01% Brij-35, 10 mM MgCl2, 0.01M Triton, adenosine triphosphate at Km. Add to the 384-well plate to initiate there action and react for 1 hour at 28° C.
(§4) 4. 1 Eq. of sulfuric acid solution was added to terminate the reaction, the conversion rate was read with Caliper Reader. The inhibition rate was calculated as the average of two tests.

In assay [2] the target is T2, JAK3 kinase (Homo sapiens, UniProt P52333).
T2 construct: purchased Carna 08-046
T2 sequence (P52333 1-1124): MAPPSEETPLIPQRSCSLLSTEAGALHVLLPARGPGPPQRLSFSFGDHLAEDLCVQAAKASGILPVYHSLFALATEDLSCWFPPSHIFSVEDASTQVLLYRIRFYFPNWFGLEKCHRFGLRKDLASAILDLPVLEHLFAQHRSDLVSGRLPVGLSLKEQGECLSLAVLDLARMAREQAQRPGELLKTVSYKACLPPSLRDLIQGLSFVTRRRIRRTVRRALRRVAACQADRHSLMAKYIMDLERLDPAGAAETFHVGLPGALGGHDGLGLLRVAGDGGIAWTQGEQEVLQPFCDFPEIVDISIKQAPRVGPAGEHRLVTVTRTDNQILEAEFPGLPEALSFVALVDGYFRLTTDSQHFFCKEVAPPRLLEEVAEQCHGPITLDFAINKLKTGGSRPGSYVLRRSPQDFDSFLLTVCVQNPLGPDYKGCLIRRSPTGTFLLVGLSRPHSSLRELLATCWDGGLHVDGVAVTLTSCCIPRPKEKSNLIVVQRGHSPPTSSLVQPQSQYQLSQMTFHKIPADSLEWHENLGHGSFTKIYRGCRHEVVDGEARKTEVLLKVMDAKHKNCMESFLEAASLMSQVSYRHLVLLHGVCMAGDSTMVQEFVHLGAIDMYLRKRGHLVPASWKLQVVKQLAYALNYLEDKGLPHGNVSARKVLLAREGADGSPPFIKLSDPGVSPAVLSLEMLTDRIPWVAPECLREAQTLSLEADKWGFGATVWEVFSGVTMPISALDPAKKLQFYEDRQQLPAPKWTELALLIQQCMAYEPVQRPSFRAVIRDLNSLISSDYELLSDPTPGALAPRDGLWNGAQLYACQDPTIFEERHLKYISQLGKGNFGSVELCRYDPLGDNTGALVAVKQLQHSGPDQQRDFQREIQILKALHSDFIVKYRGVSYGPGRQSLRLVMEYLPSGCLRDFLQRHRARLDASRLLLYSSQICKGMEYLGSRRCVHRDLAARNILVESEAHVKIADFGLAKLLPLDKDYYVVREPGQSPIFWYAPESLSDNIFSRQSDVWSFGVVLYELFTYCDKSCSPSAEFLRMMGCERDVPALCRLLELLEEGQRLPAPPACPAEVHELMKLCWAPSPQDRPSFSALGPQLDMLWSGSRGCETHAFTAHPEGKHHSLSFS
The assay is described as follows: IC50 evaluation assay on JAK3 kinase inhibition (Caliper). To be noted: adenosine triphosphate at Km; 1 hour at 28° C.; average of two tests; read-out: IC50 (nM) inhibiting JAK 3 kinase. The method, then: as §1, §2, §3, §4

The target in assay [3] is T3, JAK2 kinase (Homo sapiens, UniProt O60674).
T3 construct: purchased Carna 08-045
T3 sequence (O60674 whole entry): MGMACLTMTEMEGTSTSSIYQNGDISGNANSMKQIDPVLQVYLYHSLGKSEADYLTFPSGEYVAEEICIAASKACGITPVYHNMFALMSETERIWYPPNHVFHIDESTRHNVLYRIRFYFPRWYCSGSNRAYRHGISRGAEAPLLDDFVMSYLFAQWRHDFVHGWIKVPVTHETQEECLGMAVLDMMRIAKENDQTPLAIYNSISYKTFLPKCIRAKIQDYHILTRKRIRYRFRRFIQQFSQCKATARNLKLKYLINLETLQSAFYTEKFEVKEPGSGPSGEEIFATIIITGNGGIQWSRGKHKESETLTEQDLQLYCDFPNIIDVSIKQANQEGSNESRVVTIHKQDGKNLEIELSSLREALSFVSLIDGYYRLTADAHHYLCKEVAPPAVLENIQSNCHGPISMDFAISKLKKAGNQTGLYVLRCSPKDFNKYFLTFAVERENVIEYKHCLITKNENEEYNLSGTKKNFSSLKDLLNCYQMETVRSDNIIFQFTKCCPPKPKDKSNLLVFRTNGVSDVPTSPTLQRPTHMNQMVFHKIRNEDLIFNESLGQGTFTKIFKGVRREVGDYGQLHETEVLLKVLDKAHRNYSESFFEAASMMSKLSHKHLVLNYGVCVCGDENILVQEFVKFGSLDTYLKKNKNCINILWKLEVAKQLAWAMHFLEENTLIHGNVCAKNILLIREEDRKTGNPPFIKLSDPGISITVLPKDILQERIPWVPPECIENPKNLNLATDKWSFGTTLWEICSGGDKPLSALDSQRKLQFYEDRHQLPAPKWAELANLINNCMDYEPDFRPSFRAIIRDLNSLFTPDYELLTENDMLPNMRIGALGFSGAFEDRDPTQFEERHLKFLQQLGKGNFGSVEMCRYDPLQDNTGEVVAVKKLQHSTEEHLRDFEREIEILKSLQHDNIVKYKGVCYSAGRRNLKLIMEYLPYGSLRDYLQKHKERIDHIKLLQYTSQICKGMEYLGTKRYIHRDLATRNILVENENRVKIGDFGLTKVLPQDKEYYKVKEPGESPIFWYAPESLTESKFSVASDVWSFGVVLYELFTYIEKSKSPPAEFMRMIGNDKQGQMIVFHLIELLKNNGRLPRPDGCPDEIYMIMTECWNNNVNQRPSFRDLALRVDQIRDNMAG
In words: IC50 evaluation assay on JAK2 kinase inhibition (Caliper). The settings on record: adenosine triphosphate at Km; 1 hour at 28° C.; average of two tests; read-out: IC50 (nM) inhibiting JAK 2 kinase. The method, then:
as §1, §2, §3, §4

For orientation: IC50 means the point on the concentration scale where inhibition reaches its midpoint.

SMILES strings stand for the structures.

T1 sequence (P23458 whole entry): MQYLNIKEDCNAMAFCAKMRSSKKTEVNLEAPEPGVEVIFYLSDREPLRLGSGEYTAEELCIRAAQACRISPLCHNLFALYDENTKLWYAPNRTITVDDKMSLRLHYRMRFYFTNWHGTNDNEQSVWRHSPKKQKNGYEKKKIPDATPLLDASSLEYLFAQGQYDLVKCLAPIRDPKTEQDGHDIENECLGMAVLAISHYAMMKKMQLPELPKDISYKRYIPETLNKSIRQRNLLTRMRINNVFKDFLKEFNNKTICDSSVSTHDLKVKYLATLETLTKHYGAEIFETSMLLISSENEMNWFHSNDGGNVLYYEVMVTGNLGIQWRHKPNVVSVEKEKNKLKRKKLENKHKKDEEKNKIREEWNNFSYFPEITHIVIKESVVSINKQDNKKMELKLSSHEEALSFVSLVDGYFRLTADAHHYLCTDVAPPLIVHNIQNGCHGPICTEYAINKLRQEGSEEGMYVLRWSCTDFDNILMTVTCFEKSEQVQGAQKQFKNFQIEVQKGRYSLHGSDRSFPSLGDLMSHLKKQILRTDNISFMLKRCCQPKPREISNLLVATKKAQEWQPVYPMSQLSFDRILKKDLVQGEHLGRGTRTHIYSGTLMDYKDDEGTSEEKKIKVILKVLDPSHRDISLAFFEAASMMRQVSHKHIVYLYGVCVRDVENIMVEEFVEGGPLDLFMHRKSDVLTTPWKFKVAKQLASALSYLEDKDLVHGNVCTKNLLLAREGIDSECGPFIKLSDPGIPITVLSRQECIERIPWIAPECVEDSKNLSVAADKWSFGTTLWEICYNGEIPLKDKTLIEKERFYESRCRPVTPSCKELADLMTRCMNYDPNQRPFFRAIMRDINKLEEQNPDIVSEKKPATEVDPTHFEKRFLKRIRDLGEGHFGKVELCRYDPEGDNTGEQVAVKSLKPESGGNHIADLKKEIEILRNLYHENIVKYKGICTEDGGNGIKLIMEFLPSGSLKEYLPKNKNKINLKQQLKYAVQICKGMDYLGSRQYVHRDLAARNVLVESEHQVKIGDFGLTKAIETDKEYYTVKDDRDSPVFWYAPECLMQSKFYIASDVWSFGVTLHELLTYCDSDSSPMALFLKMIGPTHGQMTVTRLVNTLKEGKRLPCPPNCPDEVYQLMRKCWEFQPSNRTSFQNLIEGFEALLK

Regarding `Cc1sc2cnc(Nc3cnn(C)c3)nc2c1-c1cccc2c1OCO2` [Compound 30, N-[7-(2H-1,3-benzodioxol-4-yl)-6-methylthieno[3,2-d]pyrimidinyl-2-yl]-1-methyl-1H-pyrazol-4-amine], the values for the IC50 in assay [1], in assay [2] and in assay [3] were 8.5 nM, 5.1 nM and 1.9 nM, respectively.

`Cc1sc2cnc(Nc3cnn(C4CCNCC4)c3)nc2c1-c1cccc2c1OCC2` [Compound 32, N-[7-(2,3-dihyro-1-benzofuran-7-yl)-6-methylthieno[3,2-d]pyrimidinyl-2-yl]-1-(piperidinyl-4-yl)-1H-pyrazol-4-amine]: the IC50 in assay [1] came to 6.6 nM; in assay [2] it was 0.42 nM; in assay [3] it was 0.79 nM.

With `Cc1sc2cnc(Nc3cnn(C)c3)nc2c1-c1ccccc1Cl` [Compound 33, N-[7-(2-chlorophenyl)-6-methylthieno[3,2-d]pyrimidinyl-2-yl]-1-methyl-1H-pyrazol-4-amine], the results for the concentration for half-maximal inhibition (IC50) in assay [1], in assay [2] and in assay [3] were 18.5 nM, 12.9 nM and 8.9 nM, respectively.

As to `COc1ccccc1-c1c(C)sc2cnc(Nc3cnn(C4CCNCC4)c3)nc12` [Compound 35, N-[7-(2-methoxyphenyl)-6-methylthieno[3,2-d]pyrimidinyl-2-yl]-1-(piperidinyl-4-yl)-1H-pyrazol-4-amine], the half-inhibitory concentration (IC50) in assay [1] was determined as 3.8 nM; in assay [2], 0.84 nM; in assay [3], 0.7 nM.

Turning to `Cc1sc2cnc(Nc3cnn(C4CCN(C(=O)CO)CC4)c3)nc2c1-c1cccc2c1OCC2` [Compound 36, 1-[4-(4-{[7-(2,3-dihydro-1-benzofuran-7-yl)-6-methylthieno[3,2-d]pyrimidinyl-2-yl]amino}-1H-pyrazol-1-yl)piperidinyl-1-yl]-2-hydroxyacetamide], the IC50 in assay [1] came to 13 nM; in assay [2] it was 0.41 nM; in assay [3], 0.82 nM.

Turning to `Cc1sc2cnc(Nc3cnn(C4CCOCC4)c3)nc2c1-c1cccc2c1OCC2` [Compound 39, N-[7-(2,3-dihydro-1-benzofuran-7-yl)-6-methylthieno[3,2-d]pyrimidin-2-yl]-1-(tetrahydropyran-4-yl)-1H-pyrazol-4-amine], the IC50 in assay [1] is 18 nM; in assay [2], 0.71 nM; in assay [3], 1.6 nM.

With `Cc1sc2cnc(Nc3cnn(C)c3)nc2c1-c1ccccc1N(C)C` [Compound 41, N-{7-[2-(dimethylamino)phenyl]-6-methylthieno[3,2-d]pyrimidin-2-yl}-1-methyl-1H-pyrazol-4-amine], the concentration for half-maximal inhibition (IC50) in assay [1] is 41 nM; in assay [2] it was 33.7 nM; in assay [3], 36 nM.

Consider `COc1ccncc1-c1c(C)sc2cnc(Nc3cnn(C)c3)nc12` [Compound 42], for which the figures for the 50% inhibitory concentration (IC50) in assay [1], in assay [2] and in assay [3] were 47 nM, 29 nM and 13 nM, respectively.

As for `COc1ncccc1-c1c(C)sc2cnc(Nc3cnn(C)c3)nc12` [Compound 43], the half-inhibitory concentration (IC50) in assay [1] came out at 7.2 nM; in assay [2] it was 1 nM; in assay [3], 1.7 nM.

With `c1cc2c(c(-c3cccc4cnc(Nc5cnn(C6CCNCC6)c5)nc34)c1)OCC2` [Compound 44, 8-(2,3-Dihydro-1-benzofuran-7-yl)-N-[1-(4-piperidin)-1H-pyrazol-4-yl]quinazolin-2-amine], the IC50 came to 54 nM in assay [1], 16 nM in assay [2] and 7.7 nM in assay [3].

In the case of `COc1ccccc1-c1cccc2cnc(Nc3cnn(C4CCNCC4)c3)nc12` [Compound 45, 8-(2-Methoxyphenyl)-N-[1-(4-piperidinyl)-1H-pyrazol-4-yl]quinazolin-2-amine], the figures for the IC50 in assay [1], in assay [2] and in assay [3] were 2.4 nM, 1 nM and 5.8 nM, respectively.

On to `COc1ccccc1-c1cncc2cnc(Nc3cnn(C4CCNCC4)c3)nc12` [Compound 47, N-[8-(2-methoxyphenyl)pyridino[4,3-d]pyrimidin-2-yl]-1-(4-piperidin)-1H-pyrazol-4-amine], for which the IC50 in assay [1] worked out at 58 nM; in assay [2], 3 nM; in assay [3], 9.6 nM.

`COc1cc(S(C)(=O)=O)ccc1-c1c(C)sc2cnc(Nc3cnn(C4CCNCC4)c3)nc12` [Compound 48, N-[7-(4-methylsulfonyl-2-methoxyphenyl)-6-methylthieno[3,2-d]pyrimidin-2-yl]-1-(4-piperidin)-1H-pyrazol-4-amine]: the half-maximal inhibitory concentration (IC50) in assay [1] is 4.2 nM; in assay [2], 1.3 nM; in assay [3], 0.51 nM.

For `COc1cc(S(C)(=O)=O)ccc1-c1cccc2cnc(Nc3cnn(C4CCNCC4)c3)nc12` [Compound 49, 8-(4-methylsulfonyl-2-methoxyphenyl)-N-[1-(4-piperidin)-1H-pyrazol-4-yl]quinazolin-2-amine], the values for the IC50 in assay [1], in assay [2] and in assay [3] were 58 nM, 9.8 nM and 2.1 nM, respectively.

The record behind these values is patent US10494378B2, “Fused ring pyrimidine compound, intermediate, and preparation method, composition and use thereof” (GUANGZHOU MAXINOVEL PHARMACEUTICALS CO., LTD., priority 2015, dated 2019).
